Results reported in ChEMBL document CHEMBL3886587, “Antagonists of prostaglandin EP3 receptor” (2016).

Molecular target: T1, Prostaglandin E2 receptor EP3 subtype (Homo sapiens, UniProt P43115)
T1 sequence (P43115 whole entry): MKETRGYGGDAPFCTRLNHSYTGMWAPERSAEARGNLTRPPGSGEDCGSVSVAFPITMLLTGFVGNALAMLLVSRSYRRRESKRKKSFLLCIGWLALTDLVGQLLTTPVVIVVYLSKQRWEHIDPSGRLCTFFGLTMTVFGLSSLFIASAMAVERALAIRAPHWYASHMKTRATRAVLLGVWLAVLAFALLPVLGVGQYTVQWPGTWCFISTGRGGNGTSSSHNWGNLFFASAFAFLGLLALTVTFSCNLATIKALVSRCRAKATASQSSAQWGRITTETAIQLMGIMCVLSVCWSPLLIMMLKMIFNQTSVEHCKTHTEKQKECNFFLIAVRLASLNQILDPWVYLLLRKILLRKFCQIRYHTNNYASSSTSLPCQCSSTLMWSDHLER
Test: EP3 Radioligand SPA Binding Assay: Test compounds were half log serially diluted in 100% DMSO (J. T. Baker #922401). 1 uL of each compound was added to appropriate wells of a 384-well plate (Matrix Cat #4322). Unlabeled PGE2 (Tocris Cat #2296) at a final concentration of 1 uM was used to determine non-specific binding. 1 uL of 100% DMSO (J. T. Baker #922401) was used to determine total binding. Millipore EP3 Chem1 membranes (prepared in-house from cell paste derived from the Millipore ChemiSCREEN Human Recombinant EP3 Prostanoid Receptor Calcium-Optimized Stable Cell Line (Millipore Cat #HTS092C. http://www.millipore.com/catalogue/item/hts092c)) were thawed and diluted in binding buffer (50 mM Hepes pH 7.4 (Lonza Cat #17-737), 5 mM MgCl2 (Sigma-M1028), and 0.1% BSA (Sigma A-7409)) to a final concentration of 1 ug/25 uL. 25 uL of diluted membranes were added to prepared compound plates. WGA coated PVT SPA Beads (Perkin Elmer Cat #RPNQ0060) were diluted in binding buffer to a concentration of 4 ug/ul, and 25 uL of the SPA bead mixture was then added to each well for a final assay concentration of 100 ug/well. [3H]-PGE2 (Perkin Elmer Cat #NET428) was diluted in binding buffer to a concentration of […], and 25 uL was added to all wells for a final assay concentration of 1.125 nM. Plates were incubated for 30 minutes at r.t. (approximately 25° C.) with shaking. […]

Ki: 13.9 nM
Compound: Cn1ncc2c(F)cc(-c3ccc([C@@]4(C)CCCNC4=O)c(=O)[nH]3)cc21
